Test results reported in patent publication US20230310428A1, “EGFR INHIBITOR AND PREPARATION METHOD AND USE THEREOF” (HONGYUN BIOTECH CO., LTD., priority 2020, published 2023).
Read-outs that look alike come from different tables or passages of the source.

What was measured:
Experiment in all cases: Growth inhibitory activity of compounds on BaF3 cell lines stably transfected with kinase (MTS, 48 h)
Format in all cases: cell-based
[1] = target: T1, various mutants of kinase EGFR (BaF3 cell lines stably transfected with kinase) (Homo sapiens, UniProt P00533, C797S/L858R/T790M)
T1 construct: expressed in transfected cells; host or cells: BaF3
T1 sequence (P00533 25-1210 T790M/C797S/L858R): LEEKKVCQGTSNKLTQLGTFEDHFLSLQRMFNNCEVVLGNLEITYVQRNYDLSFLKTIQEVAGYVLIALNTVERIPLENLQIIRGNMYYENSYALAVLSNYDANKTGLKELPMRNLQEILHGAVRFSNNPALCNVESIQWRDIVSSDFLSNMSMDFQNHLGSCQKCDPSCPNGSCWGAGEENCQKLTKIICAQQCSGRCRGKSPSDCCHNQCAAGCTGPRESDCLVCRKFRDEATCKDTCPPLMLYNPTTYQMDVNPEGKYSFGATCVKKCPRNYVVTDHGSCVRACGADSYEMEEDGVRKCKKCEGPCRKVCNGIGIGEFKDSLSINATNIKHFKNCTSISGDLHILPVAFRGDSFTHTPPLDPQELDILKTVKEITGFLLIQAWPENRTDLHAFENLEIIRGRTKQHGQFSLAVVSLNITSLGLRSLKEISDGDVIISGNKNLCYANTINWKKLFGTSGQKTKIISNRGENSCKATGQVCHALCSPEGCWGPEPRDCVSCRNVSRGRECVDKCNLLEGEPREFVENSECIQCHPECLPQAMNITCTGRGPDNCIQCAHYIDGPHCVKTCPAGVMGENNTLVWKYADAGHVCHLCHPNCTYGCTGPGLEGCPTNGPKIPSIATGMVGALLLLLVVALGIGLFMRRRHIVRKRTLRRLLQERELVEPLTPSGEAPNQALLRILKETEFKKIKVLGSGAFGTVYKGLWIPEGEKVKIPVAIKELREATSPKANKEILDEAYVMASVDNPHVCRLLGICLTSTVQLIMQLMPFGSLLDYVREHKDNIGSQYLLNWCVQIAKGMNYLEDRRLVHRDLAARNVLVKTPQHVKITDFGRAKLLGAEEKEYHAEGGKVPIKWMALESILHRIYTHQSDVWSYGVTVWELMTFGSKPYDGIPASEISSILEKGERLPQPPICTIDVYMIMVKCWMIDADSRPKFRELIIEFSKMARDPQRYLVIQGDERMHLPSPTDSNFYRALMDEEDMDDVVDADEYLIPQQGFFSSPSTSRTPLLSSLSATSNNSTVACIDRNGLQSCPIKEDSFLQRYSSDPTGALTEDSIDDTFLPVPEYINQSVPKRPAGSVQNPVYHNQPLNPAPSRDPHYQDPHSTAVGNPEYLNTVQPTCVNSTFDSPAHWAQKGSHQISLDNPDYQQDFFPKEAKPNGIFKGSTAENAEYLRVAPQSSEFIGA
Method in brief: (§1)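 BaF3 cells stably transfected with EGFR mutants were exposed for 48 h at 37°C to 8 compound concentrations (top 10 µM, 1/3 dilutions, 0.1% DMSO). Growth was read by MTS at 490 nm after 1-4 h, in duplicate; IC50 was derived from inhibition rates versus DMSO control.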

[2] = target: T2, various mutants of kinase EGFR (BaF3 cell lines stably transfected with kinase) (Homo sapiens, UniProt P00533, T790M/C797S, form not given)
T2 construct: other: BaF3 cells stably transfected with EGFR Δ19Del/T790M/C797S; MTS, 48; other: BaF3 cell line stably transfected with EGFR Δ19Del/T790M/C7
T2 sequence (P00533 with tags, fused parts or gaps DEL746-750/T790M/C797S, form open): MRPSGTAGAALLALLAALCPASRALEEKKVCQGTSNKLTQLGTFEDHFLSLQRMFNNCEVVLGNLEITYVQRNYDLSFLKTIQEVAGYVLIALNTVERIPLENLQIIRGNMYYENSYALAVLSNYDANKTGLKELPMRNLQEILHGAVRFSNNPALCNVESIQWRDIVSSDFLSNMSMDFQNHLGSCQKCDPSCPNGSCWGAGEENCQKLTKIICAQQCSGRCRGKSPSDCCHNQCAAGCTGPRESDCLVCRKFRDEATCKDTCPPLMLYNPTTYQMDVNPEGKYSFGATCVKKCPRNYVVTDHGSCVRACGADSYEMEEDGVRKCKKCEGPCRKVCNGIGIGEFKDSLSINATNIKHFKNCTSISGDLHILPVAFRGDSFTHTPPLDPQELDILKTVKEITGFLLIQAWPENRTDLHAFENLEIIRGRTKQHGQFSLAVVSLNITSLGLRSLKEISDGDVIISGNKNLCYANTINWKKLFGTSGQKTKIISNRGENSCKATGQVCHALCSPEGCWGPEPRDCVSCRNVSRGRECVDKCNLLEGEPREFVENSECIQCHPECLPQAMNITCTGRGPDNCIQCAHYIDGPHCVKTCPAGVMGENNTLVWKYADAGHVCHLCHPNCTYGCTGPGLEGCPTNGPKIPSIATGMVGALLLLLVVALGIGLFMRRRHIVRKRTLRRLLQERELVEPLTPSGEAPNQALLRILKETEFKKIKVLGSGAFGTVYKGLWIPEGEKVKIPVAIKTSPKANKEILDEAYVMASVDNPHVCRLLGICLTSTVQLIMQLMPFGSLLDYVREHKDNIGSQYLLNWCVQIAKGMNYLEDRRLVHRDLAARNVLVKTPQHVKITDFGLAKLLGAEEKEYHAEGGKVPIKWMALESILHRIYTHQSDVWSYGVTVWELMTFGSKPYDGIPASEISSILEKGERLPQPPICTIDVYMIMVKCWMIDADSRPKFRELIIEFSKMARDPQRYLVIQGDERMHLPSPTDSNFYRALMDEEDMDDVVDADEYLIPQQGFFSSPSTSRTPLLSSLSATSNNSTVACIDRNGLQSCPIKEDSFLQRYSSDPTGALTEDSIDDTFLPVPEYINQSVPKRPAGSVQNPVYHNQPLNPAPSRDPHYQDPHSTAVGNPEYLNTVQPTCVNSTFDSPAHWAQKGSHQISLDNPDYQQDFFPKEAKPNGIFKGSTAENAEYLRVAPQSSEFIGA
Method in brief: as §1

[3] = target: T3, various mutants of kinase EGFR (BaF3 cell lines stably transfected with kinase) (Homo sapiens, UniProt P00533, L858R)
T3 construct: expressed in transfected cells; host or cells: BaF3
Method in brief: as §1

[4] = target: T4, various mutants of kinase EGFR (BaF3 cell lines stably transfected with kinase) (Homo sapiens, UniProt P00533, L858R/T790M)
T4 construct: expressed in transfected cells; host or cells: BaF3
T4 sequence (P00533 25-1210 T790M/L858R): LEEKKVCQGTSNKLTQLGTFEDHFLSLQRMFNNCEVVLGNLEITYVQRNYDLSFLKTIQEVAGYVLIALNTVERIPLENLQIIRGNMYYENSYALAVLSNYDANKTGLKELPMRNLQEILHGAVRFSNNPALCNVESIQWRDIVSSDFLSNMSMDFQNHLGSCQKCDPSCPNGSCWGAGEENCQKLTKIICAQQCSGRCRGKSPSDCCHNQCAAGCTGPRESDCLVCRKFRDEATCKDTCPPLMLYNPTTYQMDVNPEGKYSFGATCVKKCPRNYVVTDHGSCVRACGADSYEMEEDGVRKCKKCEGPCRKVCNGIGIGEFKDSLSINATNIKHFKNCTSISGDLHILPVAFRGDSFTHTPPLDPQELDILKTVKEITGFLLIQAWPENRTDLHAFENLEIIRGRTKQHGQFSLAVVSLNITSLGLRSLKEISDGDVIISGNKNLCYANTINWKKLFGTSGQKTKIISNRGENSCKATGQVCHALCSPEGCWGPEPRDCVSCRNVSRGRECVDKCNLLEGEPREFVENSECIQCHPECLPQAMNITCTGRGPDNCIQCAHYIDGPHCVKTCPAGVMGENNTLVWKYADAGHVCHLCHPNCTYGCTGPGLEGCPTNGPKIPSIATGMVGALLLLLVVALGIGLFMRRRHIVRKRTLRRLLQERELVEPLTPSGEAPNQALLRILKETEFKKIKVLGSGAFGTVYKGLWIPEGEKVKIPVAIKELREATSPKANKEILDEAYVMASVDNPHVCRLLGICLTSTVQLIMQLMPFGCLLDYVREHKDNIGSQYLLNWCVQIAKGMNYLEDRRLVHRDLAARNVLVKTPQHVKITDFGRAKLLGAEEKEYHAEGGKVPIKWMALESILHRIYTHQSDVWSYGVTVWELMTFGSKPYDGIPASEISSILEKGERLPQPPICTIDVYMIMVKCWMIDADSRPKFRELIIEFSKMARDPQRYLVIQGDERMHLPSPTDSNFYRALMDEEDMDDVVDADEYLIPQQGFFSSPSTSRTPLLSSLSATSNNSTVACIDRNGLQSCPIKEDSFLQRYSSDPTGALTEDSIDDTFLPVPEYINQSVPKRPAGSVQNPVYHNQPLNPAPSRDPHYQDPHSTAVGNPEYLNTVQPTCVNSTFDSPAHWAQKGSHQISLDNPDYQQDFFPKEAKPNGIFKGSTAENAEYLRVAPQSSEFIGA
Method in brief: as §1

[5] = target: T5, various mutants of kinase EGFR (BaF3 cell lines stably transfected with kinase) (Homo sapiens, UniProt P00533)
T5 construct: other: BaF3 cells stably transfected with EGFR Δ19Del; MTS, 48 h; other: BaF3 cell line stably transfected with EGFR Δ19Del
Method in brief: as §1

[6] = target: T6, various mutants of kinase EGFR (BaF3 cell lines stably transfected with kinase) (Homo sapiens, UniProt P00533, T790M, form not given)
T6 construct: other: BaF3 cells stably transfected with EGFR Δ19Del/T790M; MTS, 48 h; other: BaF3 cell line stably transfected with EGFR Δ19Del/T790M; MTS, 48
T6 sequence (P00533 with tags, fused parts or gaps DEL746-750/T790M, form open): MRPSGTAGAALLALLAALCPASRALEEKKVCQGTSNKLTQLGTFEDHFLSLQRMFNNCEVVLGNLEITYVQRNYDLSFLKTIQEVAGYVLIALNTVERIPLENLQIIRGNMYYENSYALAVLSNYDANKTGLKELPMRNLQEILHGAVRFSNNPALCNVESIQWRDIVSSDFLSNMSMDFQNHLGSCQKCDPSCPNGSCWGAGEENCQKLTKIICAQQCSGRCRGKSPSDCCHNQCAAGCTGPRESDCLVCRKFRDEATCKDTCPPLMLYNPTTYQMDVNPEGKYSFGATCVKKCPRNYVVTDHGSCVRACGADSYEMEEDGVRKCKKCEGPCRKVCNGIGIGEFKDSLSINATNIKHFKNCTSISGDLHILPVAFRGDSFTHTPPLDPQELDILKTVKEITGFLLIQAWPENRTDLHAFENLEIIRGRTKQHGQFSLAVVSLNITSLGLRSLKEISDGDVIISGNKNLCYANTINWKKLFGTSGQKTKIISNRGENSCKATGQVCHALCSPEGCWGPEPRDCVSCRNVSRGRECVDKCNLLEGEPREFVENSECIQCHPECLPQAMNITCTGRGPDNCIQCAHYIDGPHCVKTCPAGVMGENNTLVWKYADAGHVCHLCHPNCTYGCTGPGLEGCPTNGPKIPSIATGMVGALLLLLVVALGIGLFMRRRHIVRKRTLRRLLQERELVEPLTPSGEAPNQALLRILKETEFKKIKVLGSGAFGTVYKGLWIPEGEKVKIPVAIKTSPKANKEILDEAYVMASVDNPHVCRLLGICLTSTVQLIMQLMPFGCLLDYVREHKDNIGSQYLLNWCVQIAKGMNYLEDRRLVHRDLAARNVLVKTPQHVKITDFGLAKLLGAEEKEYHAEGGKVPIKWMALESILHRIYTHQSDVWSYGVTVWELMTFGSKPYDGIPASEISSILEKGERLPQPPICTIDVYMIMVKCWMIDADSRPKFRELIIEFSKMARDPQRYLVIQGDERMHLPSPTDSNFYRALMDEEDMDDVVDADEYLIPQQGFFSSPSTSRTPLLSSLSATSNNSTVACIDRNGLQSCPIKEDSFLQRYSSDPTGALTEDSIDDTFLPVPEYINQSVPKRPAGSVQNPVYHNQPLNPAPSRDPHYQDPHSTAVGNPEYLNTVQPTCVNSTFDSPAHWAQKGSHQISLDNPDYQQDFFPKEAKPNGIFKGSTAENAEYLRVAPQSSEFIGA
Method in brief: as §1

[7] = BaF3 cell line stably transfected with EGFR L858R/T790M/C797S, read-out: L858R/T790M/ C797S growth inhibitory activity IC50
[8] = BaF3 cell line stably transfected with EGFR Δ19Del/T790M/C797S, read-out: Δ19Del/T790M/ C797S growth inhibitory activity IC50
[9] = BaF3 cell line stably transfected with EGFR L858R, read-out: L858R growth inhibitory activity IC50
[10] = BaF3 cell line stably transfected with EGFR L858R/T790M, read-out: L858R/ T790M growth inhibitory activity IC50
[11] = BaF3 cell line stably transfected with EGFR Δ19Del, read-out: Δ19Del growth inhibitory activity IC50
[12] = BaF3 cell line stably transfected with EGFR Δ19Del/T790M, read-out: Δ19Del/ T790M growth inhibitory activity IC50
[13] = BaF3 cells stably transfected with EGFR L858R/T790M/C797S, read-out: IC50, growth inhibition, L858R/T790M/C797S
[14] = BaF3 cells stably transfected with EGFR Δ19Del/T790M/C797S, read-out: IC50, growth inhibition, Δ19Del/T790M/C797S
[15] = BaF3 cells stably transfected with EGFR L858R, read-out: IC50, growth inhibition, L858R
[16] = BaF3 cells stably transfected with EGFR L858R/T790M, read-out: IC50, growth inhibition, L858R/T790M
[17] = BaF3 cells stably transfected with EGFR Δ19Del, read-out: IC50, growth inhibition, Δ19Del
[18] = BaF3 cells stably transfected with EGFR Δ19Del/T790M, read-out: IC50, growth inhibition, Δ19Del/T790M

SMILES	IC50 [1, 7] [nM]	IC50 [2, 8] [nM]	IC50 [3, 9] [nM]	IC50 [4, 10] [nM]	IC50 [5, 11] [nM]	IC50 [6, 12] [nM]	IC50 [1, 13] [nM]	IC50 [2, 14] [nM]	IC50 [3, 15] [nM]	IC50 [4, 16] [nM]	IC50 [5, 17] [nM]	IC50 [6, 18] [nM]
COc1cc(N2CCC(N3CCN(C)CC3)CC2)c(C)cc1Nc1nc(Nc2ccc3nccnc3c2N(C)S(C)(=O)=O)c2ccsc2n1 [II-2-1]	500 to 2500	50 to 500	500 to 2500	500 to 2500	500 to 2500	500 to 2500						
CCc1cc(Nc2ncc(Br)c(Nc3ccc4nccnc4c3N(C)S(=O)(=O)CC)n2)c(OC(F)(F)F)cc1N1CCC(N2CCN(C)CC2)CC1 [Compound I-101]							≤ 50	≤ 50	50 to 500	50 to 500	50 to 500	≤ 50
CCc1cc(Nc2ncc(Cl)c(Nc3ccc4nccnc4c3N(C)S(=O)(=O)CC)n2)c(OC(F)(F)F)cc1N1CCC(N2CCN(C)CC2)CC1 [Compound I-116]							50 to 500	≤ 50	50 to 500	50 to 500	50 to 500	50 to 500
COc1cc(N2CCC(N3CCN(C)CC3)CC2)c(C)cc1Nc1ncc(Br)c(Nc2ccc3nccnc3c2NS(=O)(=O)C(C)C)n1 [Compound I-414]	≤ 50	≤ 50	50 to 500	≤ 50	50 to 500	≤ 50						
CCN(c1c(Nc2nc(Nc3ccc(N4CCC(N5CCN(C)CC5)CC4)cc3OC)ncc2Br)ccc2nccnc12)S(C)(=O)=O [Compound I-211]							≤ 50	≤ 50	≤ 50	≤ 50	50 to 500	≤ 50
COc1nc(N2CCC(N3CCN(C)CC3)CC2)ccc1Nc1nc(Nc2ccc3nccnc3c2N(C)S(C)(=O)=O)c2sccc2n1 [II-1-4]	500 to 2500	500 to 2500	500 to 2500	500 to 2500	500 to 2500	500 to 2500						
COc1cc(N2CCC(N(C)C)C2)c(C)cc1Nc1ncc(Cl)c(Nc2ccc3nccnc3c2N(C)S(=O)(=O)C(F)(F)F)n1 (stereo not drawn) [Compound I-268]							50 to 500	50 to 500	500 to 2500	500 to 2500	500 to 2500	500 to 2500
CCc1cc(Nc2ncc(Cl)c(Nc3ccc4nccnc4c3N(C)S(=O)(=O)C(F)(F)F)n2)c(OC(F)(F)F)cc1N1CCC(N2CCN(C)CC2)CC1 [Compound I-131]							50 to 500	50 to 500	500 to 2500	500 to 2500	500 to 2500	50 to 500
COc1cc(N2CCC(N3CCN(C)CC3)CC2)c(C(C)C)cc1Nc1ncc(C2CC2)c(Nc2ccc3nccnc3c2N(C)S(C)(=O)=O)n1 [Compound I-291]							500 to 2500	50 to 500	50 to 500	50 to 500	50 to 500	50 to 500
COc1ccc(N2CCC(O)CC2)cc1Nc1ncc(F)c(Nc2ccc3nccnc3c2N(C)S(C)(=O)=O)n1 [Compound I-367]	50 to 500	50 to 500	500 to 2500	500 to 2500	500 to 2500	500 to 2500						
CCc1cc(Nc2nc(Nc3ccc4nccnc4c3N(C)S(C)(=O)=O)c3occc3n2)c(OC(F)(F)F)cc1N1CCC(N2CCN(C)CC2)CC1 [II-1-41]	50 to 500	50 to 500	50 to 500	500 to 2500	500 to 2500	500 to 2500						
COc1ccc(C(=O)N2CCN(C)CC2)cc1Nc1ncc(Br)c(Nc2ccc3nccnc3c2N(C)S(C)(=O)=O)n1 [Compound I-81]							50 to 500	500 to 2500	500 to 2500	50 to 500	50 to 500	50 to 500
CN1CCN(C2CCN(c3ccc(Nc4ncc(Br)c(Nc5ccc6nccnc6c5N(C)S(C)(=O)=O)n4)c(OC(F)(F)F)c3)CC2)CC1 [Compound I-7]							50 to 500	≤ 50	50 to 500	50 to 500	50 to 500	50 to 500
